Data set [1] concerns utrophin promoter. As to the kind of experiment: utrophin promoter-luciferase reporter assay, 96-well format. The conditions noted are these: for maximal fold induction: read-out: Max. fold change; for dose-dependent activation of the utrophin promoter: range of concentrations, 96-well plate format, FIGS. 1 and 2. It counts as cell-based. How it is done:
(§1) The ability of test compounds to upregulate activity of the utrophin promoter was determined using the muscle cell line C2C12utrn, which contains the utrophin gene promoter linked to the protein-encoding sequence for luciferase. Using these cells, a chemical library was screened for compounds that activate the utrophin promoter. Light production was the readout.
In some cases compounds were tested at a range of concentrations on test cells in a 96-well plate format.

Data set [2] has as its system utrophin promoter. Description: utrophin promoter-luciferase reporter screen, 384-well format. Conditions: C2C12utrn cells; for maximal fold induction: 24 h, read-out: Max. fold change. It counts as cell-based. The procedure: as §1
In the first screening, 384-well plates were used to grow C2C12 […] cells and expose to test compounds. Cells were exposed to test compounds at a single concentration for 24 hours, wherein 19 compounds of 1120 tested produced an increase of at least 20% of the activity of the luciferase reporter.
Subsequently, the 19 compounds were rescreened at 15 different concentrations.

Data set [3] has as its system utrophin A mRNA. Description: utrophin A mRNA upregulation in C2C12 muscle cells (TaqMan qPCR). In kind it is cell-based. The conditions noted are these: either in serum-containing or serum-free media, FIG. 4. The procedure:
In a further experiment, the activity of kawain, equilin and nabumetone were evaluated in C2C12 muscle cells for upregulation of utrophin A mRNA (FIG. 3). C2C12 muscle cells were treated with optimal doses of compounds (based on previous dose-response data) for 24 hours, either in the presence of serum or in the absence of serum (following 24 hours of serum starvation). Trichostatin A and heregulin were used as positive controls for utrophin upregulation in the presence (trichostatin A) or absence (heregulin) of serum. Utrophin A mRNA was measured using a TaqMan qPCR assay and normalised to 18S rRNA. Data are presented as fold-changes in utrophin A mRNA compared to DMS O-only controls (compounds) or media-only controls (trichostatin A and heregulin).
Additional experiments were performed in C2C12 cells. […] C2C12 cells were treated with Prestwick compounds A, J, L and S plus TSA and heregulin (HRG) as positive controls.

The test system of data set [4] is mice. As to the kind of experiment: in vivo treatment of mice: muscle weights and muscle function. An excerpt:
In vivo experiments were perfomed in mice by treating with nabumetone. […] Soleus, gastrocnemius (gastroc), tibialis anterior (TA) and quadriceps (quads) were bigger in treated mice. […] There was no difference in whole body weight between treatment groups.

Setting [5] is: 96-well format, C2C12utrn cells, luciferase readout.

Where a name gives a salt, the structure may show the parent alone.

Take `c1ccc2[nH]c(-c3cscn3)nc2c1` [tiabendazole, 2-(1,3-thiazol-4-yl)-1H-benzoimidazole]: the results for the maximal fold induction in data set [1] (setting [5]) and in data set [2] (luciferase readout) were 2.1 and 1.86, respectively. Further, in data set [1], the “dose-dependent activation of the utrophin promoter” value is reported as “dose-dependent activation”.

With `C[C@]12CC[C@H]3C(=CCc4cc(O)ccc43)[C@@H]1CCC2=O` [equilin, 3-hydroxy-13-methyl-9,11,12,14,15,16-hexahydro-6H-cylcopenta(a)phenanthren-17-one], the maximal fold induction in data set [1] (setting [5]) came to 3.4; in data set [2] (luciferase readout) it was 1.6. For the same compound, the “dose-dependent activation of the utrophin promoter” value in data set [1] is on record as “dose-dependent activation”.

In the case of heregulin, the “levels of endogenous utrophin A mRNA” value in data set [3] was “increased”.

With `Nc1ccc(/N=N/c2ccccc2)c(N)n1` [phenazopyridine HCl, 3-phenyldiazenylpyridine-2,6-diamine], the maximal fold induction is 2.6 in data set [1] (setting [5]) and 1.62 in data set [2] (luciferase readout). Further, in data set [1], the “dose-dependent activation of the utrophin promoter” value is given as “dose-dependent activation”.

With `Cc1oncc1C(=O)Nc1ccc(C(F)(F)F)cc1` [leflunomide, 5-methyl-N-[4-(trifluoromethyl)phenyl]isoxazole-4-carboxamide], the maximal fold induction in data set [1] (setting [5]) amounted to 2.9; in data set [2] (luciferase readout), 1.38. Also, the “dose-dependent activation of the utrophin promoter” value in data set [1] is given as “dose-dependent activation”.

Take `Nc1nc2ccc(OC(F)(F)F)cc2s1` [riluzole HCl, 6-(trifluoromethoxy)benzothiazol-2-amine]: the values for the maximal fold induction in data set [1] (setting [5]) and in data set [2] (luciferase readout) were 2.2 and 1.56, respectively. Moreover, the “dose-dependent activation of the utrophin promoter” value in data set [1] is “dose-dependent activation”.

In the case of `C#CCN(C)CCCOc1ccc(Cl)cc1Cl` [clorgyline HCl, N-[3-(2,4-dichlorophenoxy)propyl]-N-methylprop-2-yn-1-amine], the maximal fold induction in data set [1] (setting [5]) turned out to be 1.9; in data set [2] (luciferase readout), 1.16. For the same compound, the “dose-dependent activation of the utrophin promoter” value in data set [1] is on record as “dose-dependent activation”.

`COc1ccc([C@@H]2CC(=O)c3c(O)cc(O)cc3O2)cc1O` [hesperetin, (S)-2,3-dihydro-5,7-dihydroxy-2-(3-hydroxy-4-methoxyphenyl)-4H-1-benzopyran-4-one]: the maximal fold induction in data set [1] (setting [5]) came out at 2.9; in data set [2] (luciferase readout), 1.94. The “dose-dependent activation of the utrophin promoter” value in data set [1] was “dose-dependent activation”.

Take `Oc1ccc(/C=C/c2cc(O)cc(O)c2)cc1` [resveratrol, trans-3,4′,5-trihydroxystilbene]: the figures for the maximal fold induction in data set [1] (setting [5]) and in data set [2] (luciferase readout) were 2.2 and 1.62, respectively. Also, the “dose-dependent activation of the utrophin promoter” value in data set [1] is listed as “dose-dependent activation”.

With `CC(/C=C/C(=O)NO)=C\[C@@H](C)C(=O)c1ccc(N(C)C)cc1` [TSA, Trichostatin A], the “levels of endogenous utrophin A mRNA” value in data set [3] is “increased”.

Consider `COC1=CC(=O)O[C@@H](/C=C/c2ccccc2)C1` [kawain, [R-(E)]-5,6-dihydro-4-methoxy-6-(2-phenylethenyl)-2H-pyran-2-one], for which the Optimal dose was determined as 20 µM in data set [1] (96-well format, C2C12utrn cells) and 10 µM in data set [2]. Further, the Max. fold change in data set [1] (setting [5]) stood at 2.5; in data set [2] (luciferase readout) it was 1.37. Besides, in data set [1], the “dose-dependent activation of the utrophin promoter” value is “dose-dependent activation”.

With `O=C(/C=C/C=C/c1ccc2c(c1)OCO2)N1CCCCC1` [piperine, 1-[5-(1,3-benzodioxol-5-yl)-1-oxo-2,4-pentadienyl]piperidine], the maximal fold induction was found to be 2.3 in data set [1] (setting [5]) and 1.59 in data set [2] (luciferase readout). Further, the “dose-dependent activation of the utrophin promoter” value in data set [1] was “dose-dependent activation”.

Consider `O=c1cc(-c2ccccc2)oc2cc(O)cc(O)c12` [chrysin, 5,7-dihydroxy-2-phenyl-4H-chromen-4-one], for which the maximal fold induction in data set [1] (setting [5]) is 3.4; in data set [2] (luciferase readout), 1.5. For the same compound, the “dose-dependent activation of the utrophin promoter” value in data set [1] is “dose-dependent activation”.

Turning to `COc1ccc2cc(CCC(C)=O)ccc2c1` [nabumetone, 4-(6-methoxy-2-naphthyl)-2-butanone], the “whole body weight between treatment groups” value in data set [4] (mice, FIG. 5) is recorded as “no difference”. In data set [4] (treated mice, FIG. 5), the “muscle weight, EDL” value is given as “not significantly bigger”. Also, in data set [4] (treated mice, FIG. 5, p<0.05), the “muscle weight, gastrocnemius (gastroc)” value is “bigger”; the “muscle weight, quadriceps (quads)” value was “bigger”; the “muscle weight, soleus” value is on record as “bigger”; the “muscle weight, tibialis anterior (TA)” value is listed as “bigger”. The force generating capacity entry in data set [4] (treated muscles, FIG. 6) is “trend towards increased”. In data set [4] (treated muscles, FIG. 6, p<0.05), the “peak specific twitch force” value is “significantly increased”. Moreover, the “force drop on eccentric contraction” value in data set [4] (treated muscles, FIG. 6, trend) is given as “decreased”. For the same compound, in data set [1] (setting [5]), the maximal fold induction came to 2.5. Besides, in data set [1], the “dose-dependent activation of the utrophin promoter” value was “dose-dependent activation”. Also, the maximal fold induction in data set [2] (luciferase readout) worked out at 1.56.

Regarding `O=c1cc(-c2ccc(O)cc2)oc2cc(O)cc(O)c12` [apigenin, 5,7-dihydroxy-2-(4-hydroxyphenyl)-4H-1-benzopyran-4-one], the results for the maximal fold induction in data set [1] (setting [5]) and in data set [2] (luciferase readout) were 3.5 and 1.54, respectively. For the same compound, the “dose-dependent activation of the utrophin promoter” value in data set [1] is reported as “dose-dependent activation”.

The record behind these values is patent publication US20120010176A1, “UTROPHIN PROMOTER ACTIVITY UPREGULATION FOR THE TREATMENT OF MUSCULAR DYSTROPHY” (priority 2008, published 2012).
